Reference: PubChem BioAssay AID1963839 (Molecular Pharmacology Branch, DTP, NCI, 2024)

Test system: 817829-284-R-J1-PDC complex spheroid viability
Assay: Anticancer human tumor 817829-284-R-J1-PDC patient-derived colon adenocarcinoma cell line growth inhibition [POLQ]
Conditions: for IC50: curve of first compound; for viability, T/C: stronger effect = lower value
Method in brief: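 PDC + HUVEC + MSC complex spheroids; POLQ inhibitors ± partner drugs; top conc. at/near clinical Cmax, else 10 microM (SN-38 1 microM), half-log dilutions; 37 degrees C, 5% CO2.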

[1] = second compound 0.0316 µM, first compound 0.0316 µM
[2] = second compound 0.0316 µM, first compound 0.1 µM
[3] = second compound 0.0316 µM, first compound 0.316 µM
[4] = second compound 0.0316 µM, first compound 1 µM
[5] = second compound 0.0316 µM, first compound 3.16 µM
[6] = second compound 0.0316 µM, first compound 10 µM
[7] = second compound 0.1 µM, first compound 0.0316 µM
[8] = second compound 0.1 µM, first compound 0.1 µM
[9] = second compound 0.1 µM, first compound 0.316 µM
[10] = second compound 0.1 µM, first compound 1 µM
[11] = second compound 0.1 µM, first compound 3.16 µM
[12] = second compound 0.1 µM, first compound 10 µM
[13] = second compound 0.316 µM, first compound 0.0316 µM
[14] = second compound 0.316 µM, first compound 0.1 µM
[15] = second compound 0.316 µM, first compound 0.316 µM
[16] = second compound 0.316 µM, first compound 1 µM
[17] = second compound 0.316 µM, first compound 3.16 µM
[18] = second compound 0.316 µM, first compound 10 µM
[19] = second compound 1 µM, first compound 0.0316 µM
[20] = second compound 1 µM, first compound 0.1 µM
[21] = second compound 1 µM, first compound 0.316 µM
[22] = second compound 1 µM, first compound 1 µM
[23] = second compound 1 µM, first compound 3.16 µM
[24] = second compound 1 µM, first compound 10 µM
[25] = second compound 3.16 µM, first compound 0.0316 µM
[26] = second compound 3.16 µM, first compound 0.1 µM
[27] = second compound 3.16 µM, first compound 0.316 µM
[28] = second compound 3.16 µM, first compound 1 µM
[29] = second compound 3.16 µM, first compound 3.16 µM
[30] = second compound 3.16 µM, first compound 10 µM
[31] = second compound 10 µM, first compound 0.0316 µM
[32] = second compound 10 µM, first compound 0.1 µM
[33] = second compound 10 µM, first compound 0.316 µM
[34] = second compound 10 µM, first compound 1 µM
[35] = second compound 10 µM, first compound 3.16 µM
[36] = second compound 10 µM, first compound 10 µM
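Note: spheroids exposed to compounds for 7 days.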
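Throughout, for viability, T/C: 100% = DMSO vehicle-treated spheroids.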

CCCS(=O)(=O)Nc1ccc(F)c(C(=O)c2c[nH]c3ncc(-c4ccc(Cl)cc4)cc23)c1F + Nc1ccc(C#CCN(C(=O)Cc2ncc(C(F)(F)F)cc2C(F)(F)F)c2ccc(F)cc2)nn1
IC50 (second compound 0.0316 µM): 4.47 µM
IC50 (second compound 0.1 µM): 4.54 µM
IC50 (second compound 0.316 µM): 3.46 µM
IC50 (second compound 1 µM): 3.75 µM
IC50 (second compound 3.16 µM): 4.49 µM
IC50 (second compound 10 µM): 3.68 µM
viability, T/C [1]: 90%
viability, T/C [2]: 75.5%
viability, T/C [3]: 93.2%
viability, T/C [4]: 91.3%
viability, T/C [5]: 67.2%
viability, T/C [6]: 9.94%
viability, T/C [7]: 90.4%
viability, T/C [8]: 55.9%
viability, T/C [9]: 81.7%
viability, T/C [10]: 74.7%
viability, T/C [11]: 68.2%
viability, T/C [12]: 10.4%
viability, T/C [13]: 85%
viability, T/C [14]: 85.4%
viability, T/C [15]: 83.2%
viability, T/C [16]: 75.8%
viability, T/C [17]: 53.2%
viability, T/C [18]: 11.5%
viability, T/C [19]: 84%
viability, T/C [20]: 76.7%
viability, T/C [21]: 88.2%
viability, T/C [22]: 66.3%
viability, T/C [23]: 58.6%
viability, T/C [24]: 13.9%
viability, T/C [25]: 95.2%
viability, T/C [26]: 62.6%
viability, T/C [27]: 78.7%
viability, T/C [28]: 84.2%
viability, T/C [29]: 66.1%
viability, T/C [30]: 13.2%
viability, T/C [31]: 88.9%
viability, T/C [32]: 64.8%
viability, T/C [33]: 75.8%
viability, T/C [34]: 75.9%
viability, T/C [35]: 55.6%
viability, T/C [36]: 13.6%

CNCc1ccc(-c2[nH]c3cc(F)cc4c3c2CCNC4=O)cc1 + Nc1ccc(C#CCN(C(=O)Cc2ncc(C(F)(F)F)cc2C(F)(F)F)c2ccc(F)cc2)nn1
IC50 (second compound 0.0316 µM): 6.74 µM
IC50 (second compound 0.1 µM): 7.78 µM
IC50 (second compound 0.316 µM): > 10 µM
IC50 (second compound 1 µM): > 10 µM
IC50 (second compound 3.16 µM): 7.27 µM
IC50 (second compound 10 µM): 8.04 µM
viability, T/C [1]: 85.2%
viability, T/C [2]: 83.8%
viability, T/C [3]: 86.4%
viability, T/C [4]: 73.8%
viability, T/C [5]: 67.4%
viability, T/C [6]: 41.2%
viability, T/C [7]: 81%
viability, T/C [8]: 97%
viability, T/C [9]: 83%
viability, T/C [10]: 73.8%
viability, T/C [11]: 65.3%
viability, T/C [12]: 45.8%
viability, T/C [13]: 80.6%
viability, T/C [14]: 88.7%
viability, T/C [15]: 82.8%
viability, T/C [16]: 60.8%
viability, T/C [17]: 65%
viability, T/C [18]: 52.9%
viability, T/C [19]: 97.7%
viability, T/C [20]: 86.5%
viability, T/C [21]: 90.1%
viability, T/C [22]: 73.3%
viability, T/C [23]: 74.3%
viability, T/C [24]: 48%
viability, T/C [25]: 103%
viability, T/C [26]: 83.6%
viability, T/C [27]: 83.2%
viability, T/C [28]: 85.8%
viability, T/C [29]: 83.6%
viability, T/C [30]: 37.3%
viability, T/C [31]: 86.2%
viability, T/C [32]: 75.7%
viability, T/C [33]: 76.9%
viability, T/C [34]: 79.5%
viability, T/C [35]: 75.2%
viability, T/C [36]: 44.1%
